In patent US4482553A, “Benzothienylglycyl cephalosporin derivatives” (priority 1983, dated 1984):
≈ marks a conversion by molar mass, not a printed value. Read-outs that look alike come from different tables or passages of the source.

Key:
Type in all cases: cell-based
Staph. aureus [1] = experiment: standard in vitro agar dilution MIC (Table I), Staph. aureus; details: Staphylococcus aureus
Staph. epi [2] = experiment: standard in vitro agar dilution MIC (Table I), Staph. epi
Strep. A = experiment: standard in vitro agar dilution MIC (Table I), Strep. A; details: Table I, agar dilution, strain C203; read-out: MIC
Strep. PN = experiment: standard in vitro agar dilution MIC (Table I), Strep. PN; details: strain PARK, read-out: MIC
Strep. D = experiment: standard in vitro agar dilution MIC (Table I), Strep. D
H. influ. [3] = experiment: standard in vitro agar dilution MIC (Table I), H. influ.
Source text: (§1) The antibacterial activity of several compounds of the invention has been determined in standard in vitro agar dilution assays against a variety of gram positive and gram negative microorganisms. The following Tables present typical minimum inhibitory concentrations (MIC's) in μg/ml for several compounds of the invention when evaluated against the indicated microorganisms. MIC's for several known compounds are also presented for comparison.

E. coli = experiment: standard in vitro agar dilution MIC (Table I), E. coli; details: Escherichia coli
Klebsiella = experiment: standard in vitro agar dilution MIC (Table I), Klebsiella
Staph. epi [4] = experiment: Expanded Spectrum MIC (Table II), Staph. epi
Source text: as §1

Staph. aureus [5] = experiment: Expanded Spectrum MIC (Table II), Staph. aureus; details: Staphylococcus aureus
Source text: as §1

H. influ. [6] = experiment: Expanded Spectrum MIC (Table II), H. influ.
Source text: as §1

[7] = Table I, agar dilution, strain 222, read-out: MIC
[8] = Table I, agar dilution, strain EPI1, read-out: MIC
[9] = Klebsiella, Table I, agar dilution, strain KAE, read-out: MIC
[10] = Klebsiella, Table I, agar dilution, strain X26, read-out: MIC
[11] = Klebsiella, Table I, agar dilution, strain X68, read-out: MIC
[12] = Table I, agar dilution, strain X68

CC1=C(C(=O)O)N2C(=O)C(NC(=O)[C@H](N)c3cc4c(Cl)cccc4s3)C2SC1 (stereo partly drawn) [Ex. 7A, D-7-(4-chloro-2-benzothienylglycylamido)-3-methyl-3-cephem-4-carboxylic acid]
MIC (Staph. aureus [1]; strain V41, read-out: MIC): 2 µg/mL (≈ 4.57 µM)
MIC (Staph. aureus [1]; strain X1.1, read-out: MIC): 0.5 µg/mL (≈ 1.14 µM)
MIC (Staph. aureus [1]; strain X400, read-out: MIC): 32 µg/mL (≈ 73.1 µM)
MIC (Staph. epi [2]; [7]): 1 µg/mL (≈ 2.28 µM)
MIC (Staph. epi [2]; [8]): 2 µg/mL (≈ 4.57 µM)
MIC (Strep. A): 0.25 µg/mL (≈ 0.571 µM)
MIC (Strep. PN): 0.5 µg/mL (≈ 1.14 µM)
MIC (Strep. D; strain 2041, read-out: MIC): 32 µg/mL (≈ 73.1 µM)
MIC (Strep. D; strain X66, read-out: MIC): 32 µg/mL (≈ 73.1 µM)
MIC (H. influ. [3]; strain 76, read-out: MIC): 4 µg/mL (≈ 9.13 µM)
MIC (E. coli; strain EC14): > 128 µg/mL
MIC (E. coli; strain N10): > 128 µg/mL
MIC (E. coli; strain TEM): > 128 µg/mL
MIC (Klebsiella; [9]): > 128 µg/mL
MIC (Klebsiella; [10]): 8 µg/mL (≈ 18.3 µM)
MIC (Klebsiella; [11]): > 128 µg/mL
MIC (Staph. epi [4]; strain 219, read-out: MIC): 0.5 µg/mL (≈ 1.14 µM)
MIC (Staph. epi [4]; strain 269, read-out: MIC): 1 µg/mL (≈ 2.28 µM)
MIC (Staph. epi [4]; strain 270, read-out: MIC): 2 µg/mL (≈ 4.57 µM)
MIC (Staph. epi [4]; strain 285, read-out: MIC): 1 µg/mL (≈ 2.28 µM)
MIC (Staph. epi [4]; strain 286, read-out: MIC): 0.25 µg/mL (≈ 0.571 µM)
MIC (Staph. epi [4]; strain EPI1, read-out: MIC): 4 µg/mL (≈ 9.13 µM)
MIC (Staph. aureus [5]; strain 239, read-out: MIC): 0.5 µg/mL (≈ 1.14 µM)
MIC (Staph. aureus [5]; strain S224, read-out: MIC): 0.5 µg/mL (≈ 1.14 µM)
MIC (Staph. aureus [5]; strain S225, read-out: MIC): 0.5 µg/mL (≈ 1.14 µM)
MIC (Staph. aureus [5]; strain S226, read-out: MIC): 0.5 µg/mL (≈ 1.14 µM)
MIC (Staph. aureus [5]; strain S227, read-out: MIC): 0.5 µg/mL (≈ 1.14 µM)
MIC (Staph. aureus [5]; strain S228, read-out: MIC): 0.5 µg/mL (≈ 1.14 µM)
MIC (Staph. aureus [5]; strain S229, read-out: MIC): 0.5 µg/mL (≈ 1.14 µM)
MIC (Staph. aureus [5]; strain S230, read-out: MIC): 0.5 µg/mL (≈ 1.14 µM)
MIC (Staph. aureus [5]; strain S231, read-out: MIC): 0.25 µg/mL (≈ 0.571 µM)
MIC (Staph. aureus [5]; strain S234, read-out: MIC): 0.5 µg/mL (≈ 1.14 µM)
MIC (Staph. aureus [5]; strain S237, read-out: MIC): 0.5 µg/mL (≈ 1.14 µM)
MIC (Staph. aureus [5]; strain S238, read-out: MIC): 0.5 µg/mL (≈ 1.14 µM)
MIC (H. influ. [6]; strain 76, read-out: MIC): 16 µg/mL (≈ 36.5 µM)
MIC (H. influ. [6]; strain 158, read-out: MIC): 8 µg/mL (≈ 18.3 µM)
MIC (H. influ. [6]; strain 169, read-out: MIC): 8 µg/mL (≈ 18.3 µM)
MIC (H. influ. [6]; strain 312, read-out: MIC): 16 µg/mL (≈ 36.5 µM)
MIC (H. influ. [6]; strain 1683, read-out: MIC): 4 µg/mL (≈ 9.13 µM)
MIC (H. influ. [6]; strain 1930, read-out: MIC): 16 µg/mL (≈ 36.5 µM)
MIC (H. influ. [6]; strain 4842, read-out: MIC): 8 µg/mL (≈ 18.3 µM)
MIC (H. influ. [6]; strain C.L., read-out: MIC): 32 µg/mL (≈ 73.1 µM)
MIC (H. influ. [6]; strain HESS, read-out: MIC): 32 µg/mL (≈ 73.1 µM)
MIC (H. influ. [6]; strain M366, read-out: MIC): 32 µg/mL (≈ 73.1 µM)
MIC (H. influ. [6]; strain R465, read-out: MIC): 16 µg/mL (≈ 36.5 µM)
MIC (H. influ. [6]; strain STEL, read-out: MIC): 32 µg/mL (≈ 73.1 µM)

CC1=C(C(=O)O)N2C(=O)C(NC(=O)[C@@H](N)c3cc4c(Cl)cccc4s3)C2SC1 (stereo partly drawn) [Ex. 7B, L-7-(4-chloro-2-benzothienylglycylamido)-3-methyl-3-cephem-4-carboxylic acid]
MIC (Staph. aureus [1]; strain V41, read-out: MIC): 16 µg/mL (≈ 36.5 µM)
MIC (Staph. aureus [1]; strain X1.1, read-out: MIC): 2 µg/mL (≈ 4.57 µM)
MIC (Staph. aureus [1]; strain X400, read-out: MIC): 128 µg/mL (≈ 292 µM)
MIC (Staph. epi [2]; [7]): 4 µg/mL (≈ 9.13 µM)
MIC (Staph. epi [2]; [8]): 8 µg/mL (≈ 18.3 µM)
MIC (Strep. A): 0.5 µg/mL (≈ 1.14 µM)
MIC (Strep. PN): 2 µg/mL (≈ 4.57 µM)
MIC (Strep. D; strain 2041, read-out: MIC): 128 µg/mL (≈ 292 µM)
MIC (Strep. D; strain X66, read-out: MIC): > 128 µg/mL
MIC (H. influ. [3]; strain 76, read-out: MIC): 4 µg/mL (≈ 9.13 µM)
MIC (H. influ. [3]; strain C.L., read-out: MIC): 64 µg/mL (≈ 146 µM)
MIC (E. coli; strain EC14): > 128 µg/mL
MIC (E. coli; strain N10): > 128 µg/mL
MIC (E. coli; strain TEM): > 128 µg/mL
MIC (Klebsiella; [9]): > 128 µg/mL
MIC (Klebsiella; [10]): 32 µg/mL (≈ 73.1 µM)
MIC (Klebsiella; [11]): > 128 µg/mL

COc1c([C@@H](N)C(=O)NC2C(=O)N3C(C(=O)O)=C(C)CSC23)sc2ccccc12 (stereo partly drawn) [Ex. 9A, D-7-(3-methoxy-2-benzothienylglycylamido)-3-methyl-3-cephem-4-carboxylic acid]
MIC (Staph. aureus [1]; strain S13E): 64 µg/mL (≈ 148 µM)
MIC (Staph. aureus [1]; strain V41, read-out: MIC): 64 µg/mL (≈ 148 µM)
MIC (Staph. aureus [1]; strain X1.1, read-out: MIC): 4 µg/mL (≈ 9.23 µM)
MIC (Staph. aureus [1]; strain X400, read-out: MIC): > 128 µg/mL
MIC (Staph. epi [2]; [7]): 8 µg/mL (≈ 18.5 µM)
MIC (Staph. epi [2]; [8]): 32 µg/mL (≈ 73.8 µM)
MIC (Strep. A): 1 µg/mL (≈ 2.31 µM)
MIC (Strep. PN): 4 µg/mL (≈ 9.23 µM)
MIC (Strep. D; strain 2041): 128 µg/mL (≈ 295 µM)
MIC (Strep. D; strain X66): > 128 µg/mL
MIC (H. influ. [3]; strain 76, read-out: MIC): 32 µg/mL (≈ 73.8 µM)
MIC (H. influ. [3]; strain C.L., read-out: MIC): 64 µg/mL (≈ 148 µM)
MIC (E. coli; strain EC14): 128 µg/mL (≈ 295 µM)
MIC (E. coli; strain N10): > 128 µg/mL
MIC (E. coli; strain TEM): > 128 µg/mL
MIC (Klebsiella; Klebsiella): > 128 µg/mL
MIC (Klebsiella; [10]): 32 µg/mL (≈ 73.8 µM)
MIC (Klebsiella; [12]): > 128 µg/mL
MIC (Staph. epi [4]; strain 219, read-out: MIC): 0.25 µg/mL (≈ 0.577 µM)
MIC (Staph. epi [4]; strain 269, read-out: MIC): 1 µg/mL (≈ 2.31 µM)
MIC (Staph. epi [4]; strain 270, read-out: MIC): 1 µg/mL (≈ 2.31 µM)
MIC (Staph. epi [4]; strain 285, read-out: MIC): 0.5 µg/mL (≈ 1.15 µM)
MIC (Staph. epi [4]; strain 286, read-out: MIC): 0.25 µg/mL (≈ 0.577 µM)
MIC (Staph. epi [4]; strain EPI1, read-out: MIC): 4 µg/mL (≈ 9.23 µM)
MIC (Staph. aureus [5]; strain 239, read-out: MIC): 0.5 µg/mL (≈ 1.15 µM)
MIC (Staph. aureus [5]; strain S224, read-out: MIC): 0.25 µg/mL (≈ 0.577 µM)
MIC (Staph. aureus [5]; strain S225, read-out: MIC): 0.25 µg/mL (≈ 0.577 µM)
MIC (Staph. aureus [5]; strain S226, read-out: MIC): 0.5 µg/mL (≈ 1.15 µM)
MIC (Staph. aureus [5]; strain S227, read-out: MIC): 0.25 µg/mL (≈ 0.577 µM)
MIC (Staph. aureus [5]; strain S228, read-out: MIC): 0.25 µg/mL (≈ 0.577 µM)
MIC (Staph. aureus [5]; strain S229, read-out: MIC): 0.5 µg/mL (≈ 1.15 µM)
MIC (Staph. aureus [5]; strain S230, read-out: MIC): 0.25 µg/mL (≈ 0.577 µM)
MIC (Staph. aureus [5]; strain S231, read-out: MIC): 0.25 µg/mL (≈ 0.577 µM)
MIC (Staph. aureus [5]; strain S234, read-out: MIC): 0.5 µg/mL (≈ 1.15 µM)
MIC (Staph. aureus [5]; strain S237, read-out: MIC): 0.5 µg/mL (≈ 1.15 µM)
MIC (Staph. aureus [5]; strain S238, read-out: MIC): 1 µg/mL (≈ 2.31 µM)

COc1c([C@H](N)C(=O)NC2C(=O)N3C(C(=O)O)=C(C)CSC23)sc2ccccc12 (stereo partly drawn) [Ex. 9B, L-7-(3-methoxy-2-benzothienylglycylamido)-3-methyl-3-cephem-4-carboxylic acid]
MIC (Staph. aureus [1]; strain S13E): > 128 µg/mL
MIC (Staph. aureus [1]; strain V41, read-out: MIC): > 128 µg/mL
MIC (Staph. aureus [1]; strain X1.1, read-out: MIC): 16 µg/mL (≈ 36.9 µM)
MIC (Staph. aureus [1]; strain X400, read-out: MIC): > 128 µg/mL
MIC (Staph. epi [2]): 128 µg/mL (≈ 295 µM)
MIC (Staph. epi [2]; [7]): 32 µg/mL (≈ 73.8 µM)
MIC (Strep. A): 4 µg/mL (≈ 9.23 µM)
MIC (Strep. PN): 32 µg/mL (≈ 73.8 µM)
MIC (Strep. D; strain 2041): > 128 µg/mL
MIC (Strep. D; strain X66): > 128 µg/mL
MIC (H. influ. [3]; strain 76, read-out: MIC): 64 µg/mL (≈ 148 µM)
MIC (H. influ. [3]; strain C.L.): > 128 µg/mL
MIC (E. coli; strain EC14): > 128 µg/mL
MIC (E. coli; strain N10): > 128 µg/mL
MIC (E. coli; strain TEM): > 128 µg/mL
MIC (Klebsiella; Klebsiella): > 128 µg/mL
MIC (Klebsiella; Table I, agar dilution, strain KAE): > 128 µg/mL
MIC (Klebsiella; [12]): > 128 µg/mL
